From patent publication US11613546B2, “Substituted pyridotriazine compounds and uses thereof” (Gilead Sciences, Inc., priority 2021, dated 2023)
Like-named read-outs stand apart in the source and are kept apart here.

Legend:
Format in all cases: cell-based
HIV-1 (IIIB) = test: Antiviral assay in MT-4 cells; conditions: HIV-1 IIIB infected MT-4 cells, 5 days, Cell Titer Glo, read-out: MT4 EC50
Outline: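 MT-4 cells infected with a 1:250 dilution of HIV-1 IIIB stock were incubated with serially diluted (1:3) compound for 5 days at 37 °C. Viability read by Cell Titer Glo luminescence; EC50 is the concentration giving 50% decrease in signal, from sigmoidal dose-response fits.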

MT-4 cells = test: Cytotoxicity assay in MT-4 cells
Outline: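 Uninfected MT-4 cells were incubated with 1:3 serially diluted compound in RPMI/10% FBS for 5 days at 37° C. Viability was read by CellTiter-Glo luminescence, with 10 μM puromycin as the baseline cytotoxicity control. Values are the concentration giving a 50% decrease in luminescence, from sigmoidal dose-response fits.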

pLai RLuc reporter virus = test: HIV MT-4 serum shift antiviral reporter assay
Outline: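 MT-4 cells pre-infected with pLai RLuc virus for 2 h at 37 °C, then incubated 72 h at 37 °C with compound in medium (RPMI, 10% FBS) with or without 50% human serum; Renilla luminescence read. EC50 from sigmoidal fit; serum shift = EC50(HS/CCM)/EC50(CCM).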

[1] = Human immunodeficiency virus 1, IIIB, MT4, 120 h
[2] = uninfected MT-4 cells, 5 days, Cell Titer Glo, read-out: CC50
[3] = Human immunodeficiency virus 1, 72 h, read-out: RLUC 50% HS (nM), HS/CCM: 50% human serum, 72 h, Renilla Glo
[4] = Human immunodeficiency virus 1, 72 h, read-out: RLUC CCM (nM), cell culture media (RPMI, 10% FBS), 72 h, Renilla Glo
[5] = HS/CCM: 50% human serum, 72 h, Renilla Glo, read-out: RLUC 50% HS
[6] = cell culture media (RPMI, 10% FBS), 72 h, Renilla Glo, read-out: RLUC CCM
[7] = read-out: RLUC 50% HS, HS/CCM: 50% human serum, 72 h, Renilla Glo
[8] = read-out: RLUC CCM, cell culture media (RPMI, 10% FBS), 72 h, Renilla Glo

C[C@H]1CCC(C)(C)N2CN1n1cc(C(=O)NCc3ccc(F)cc3F)c(=O)c(O)c1C2=O [Example C95, (1S,2S)—N-(2,4-difluorobenzyl)-8-hydroxy-2,5,5-trimethyl-7,9-dioxo-2,3,4,5,7,9-hexahydro-1,6-methanopyrido[1,2-b][1,2,5]triazonine-10-carboxamide] was tested, and the EC50 (HIV-1 (IIIB); [1]) was 12.3 nM, the CC50 (MT-4 cells; [2]) was 50000 nM and the EC50 (pLai RLuc reporter virus; [3]) was 461 nM. For the same molecule, the EC50 (pLai RLuc reporter virus; [4]) was 2.52 nM.

O=C(NCc1c(F)cc(F)cc1F)c1cn2c(c(O)c1=O)C(=O)N1Cc3cc(F)ccc3CN2C1 [Example C3, (6S)-10-fluoro-1-hydroxy-2,14-dioxo-N-(2,4,6-trifluorobenzyl)-2,7,12,14-tetrahydro-6,13-methanobenzo[g]pyrido[1,2-b][1,2,5]triazonine-3-carboxamide] gave an EC50 (HIV-1 (IIIB)) of 1.7 nM, a CC50 (MT-4 cells; [2]) of 13400 nM and an EC50 (pLai RLuc reporter virus; [5]) of 2.72 nM. For the same molecule, the EC50 (pLai RLuc reporter virus; [6]) was 0.39 nM.

With C[C@H]1C=C[C@]2(CCOC2)N2CN1C(=O)c1c(O)c(=O)c(C(=O)NCc3c(F)cc(F)cc3F)cn12 [Example C84, (1′S,3S,5′S)-8′-hydroxy-5′-methyl-7′,9′-dioxo-N-(2,4,6-trifluorobenzyl)-4,5,7′,9′-tetrahydro-2H,5′H-spiro[furan-3,2′-[1,6]methanopyrido[1,2-b][1,2,5]triazonine]-10′-carboxamide] the EC50 (HIV-1 (IIIB)) was 0.6 nM, the CC50 (MT-4 cells; [2]) was 20500 nM and the EC50 (pLai RLuc reporter virus; [5]) was 24.9 nM. It also gave an EC50 (pLai RLuc reporter virus; [6]) of 0.26 nM.

In the case of C[C@@H]1CCC(C)(C)N2CN1n1cc(C(=O)NCc3ccc(F)cc3F)c(=O)c(O)c1C2=O [Example C93, (1S,2R)—N-(2,4-difluorobenzyl)-8-hydroxy-2,5,5-trimethyl-7,9-dioxo-2,3,4,5,7,9-hexahydro-1,6-methanopyrido[1,2-b][1,2,5]triazonine-10-carboxamide], the EC50 (HIV-1 (IIIB)) is reported as 16.9 nM, the CC50 (MT-4 cells; [2]) is reported as 50000 nM and the EC50 (pLai RLuc reporter virus; [5]) is reported as 96.8 nM. For the same molecule, the EC50 (pLai RLuc reporter virus; [6]) was 1.15 nM.

Molecule COC[C@@H]1C=C[C@H](C)N2CN1n1cc(C(=O)NCc3c(F)cc(F)cc3F)c(=O)c(O)c1C2=O [Example C79, (1S,2S,5S)-8-hydroxy-2-(methoxymethyl)-5-methyl-7,9-dioxo-N-(2,4,6-trifluorobenzyl)-2,5,7,9-tetrahydro-1,6-methanopyrido[1,2-b][1,2,5]triazonine-10-carboxamide] has an EC50 (HIV-1 (IIIB); [1]) of 4.6 nM, a CC50 (MT-4 cells; [2]) of 50000 nM and an EC50 (pLai RLuc reporter virus; [3]) of 638 nM. For the same molecule, the EC50 (pLai RLuc reporter virus; [4]) was 1.81 nM.

Molecule C[C@@H]1CCC[C@H](C)N2CN1n1cc(C(=O)NCc3c(F)cc(F)cc3F)c(=O)c(O)c1C2=O [Example C21, (1R,2S,6S)-9-hydroxy-2,6-dimethyl-8,10-dioxo-N-(2,4,6-trifluorobenzyl)-3,4,5,6,8,10-hexahydro-2H-1,7-methanopyrido[1,2-b][1,2,5]triazecine-11-carboxamide] has an EC50 (HIV-1 (IIIB)) of 1.7 nM, a CC50 (MT-4 cells; [2]) of 11700 nM and an EC50 (pLai RLuc reporter virus; [7]) of 98.1 nM. For the same molecule, the EC50 (pLai RLuc reporter virus; [8]) was 0.23 nM.

In the case of C[C@@H]1C=C[C@@H](C)N2CN1C(=O)c1c(O)c(=O)c(C(=O)NCc3ccc(F)cc3F)cn12 [Example C68, (1R,2R,5R)—N-(2,4-difluorobenzyl)-8-hydroxy-2,5-dimethyl-7,9-dioxo-2,5,7,9-tetrahydro-1,6-methanopyrido[1,2-b][1,2,5]triazonine-10-carboxamide], the EC50 (HIV-1 (IIIB); [1]) is reported as 1.6 nM, the CC50 (MT-4 cells; [2]) is reported as 17300 nM and the EC50 (pLai RLuc reporter virus; [4]) is reported as 0.82 nM. For the same molecule, the EC50 (pLai RLuc reporter virus; [7]) was 291 nM.

For C[C@H]1CC[C@@H](C(F)F)N2CN1C(=O)c1c(O)c(=O)c(C(=O)NCc3c(F)cc(F)cc3F)cn12 [Example C78, (1S,2S,5S)-2-(difluoromethyl)-8-hydroxy-5-methyl-7,9-dioxo-N-(2,4,6-trifluorobenzyl)-2,3,4,5,7,9-hexahydro-1,6-methanopyrido[1,2-b][1,2,5]triazonine-10-carboxamide], the EC50 (HIV-1 (IIIB)) was 1.6 nM, the CC50 (MT-4 cells; [2]) was 13700 nM and the EC50 (pLai RLuc reporter virus; [5]) was 1040 nM. It also gave an EC50 (pLai RLuc reporter virus; [6]) of 0.42 nM.

In the case of C[C@H]1C=C[C@H](CF)N2CN1C(=O)c1c(O)c(=O)c(C(=O)NCc3c(F)cc(F)cc3F)cn12 [Example C80, (1R,2R,5S)-2-(fluoromethyl)-8-hydroxy-5-methyl-7,9-dioxo-N-(2,4,6-trifluorobenzyl)-2,5,7,9-tetrahydro-1,6-methanopyrido[1,2-b][1,2,5]triazonine-10-carboxamide], the EC50 (HIV-1 (IIIB)) is reported as 8.1 nM, the CC50 (MT-4 cells) is reported as 25400 nM and the EC50 (pLai RLuc reporter virus; [5]) is reported as 810 nM. It also gave an EC50 (pLai RLuc reporter virus; [6]) of 1.24 nM.

Molecule C[C@H]1C/C=C\CN2CN1n1cc(C(=O)NCc3ccc(F)cc3F)c(=O)c(O)c1C2=O [Example C41, (1S,2S,Z)—N-(2,4-difluorobenzyl)-9-hydroxy-2-methyl-8,10-dioxo-3,6,8,10-tetrahydro-2H-1,7-methanopyrido[1,2-b][1,2,5]triazecine-11-carboxamide] has an EC50 (HIV-1 (IIIB)) of 1.2 nM, a CC50 (MT-4 cells; [2]) of 14200 nM and an EC50 (pLai RLuc reporter virus; [7]) of 68.6 nM. For the same molecule, the EC50 (pLai RLuc reporter virus; [8]) was 0.71 nM.

Molecule C[C@H]1/C=C\C[C@H](C)N2CN1C(=O)c1c(O)c(=O)c(C(=O)NCc3c(F)cc(F)cc3F)cn12 [Example C19, (1R,2S,6S,Z)-9-hydroxy-2,6-dimethyl-8,10-dioxo-N-(2,4,6-trifluorobenzyl)-3,6,8,10-tetrahydro-2H-1,7-methanopyrido[1,2-b][1,2,5]triazecine-11-carboxamide] has an EC50 (HIV-1 (IIIB)) of 1.1 nM, a CC50 (MT-4 cells; [2]) of 10200 nM and an EC50 (pLai RLuc reporter virus; [5]) of 60.3 nM. The EC50 (pLai RLuc reporter virus; [6]) was 0.41 nM.

C[C@H]1C=CC(C)(C)N2CN1n1cc(C(=O)NCc3ccc(F)cc3F)c(=O)c(O)c1C2=O [Example C91, (1R,2S)—N-(2,4-difluorobenzyl)-8-hydroxy-2,5,5-trimethyl-7,9-dioxo-2,5,7,9-tetrahydro-1,6-methanopyrido[1,2-b][1,2,5]triazonine-10-carboxamide] was tested, and the EC50 (HIV-1 (IIIB)) was 1.9 nM, the CC50 (MT-4 cells; [2]) was 31000 nM and the EC50 (pLai RLuc reporter virus; [5]) was 195 nM. For the same molecule, the EC50 (pLai RLuc reporter virus; [6]) was 0.67 nM.

C[C@H]1C/C=C\CN2CN1n1cc(C(=O)NCc3ccc(F)cc3F)c(=O)c(O)c1C2=O [Example C43, (1R,2S,Z)—N-(2,4-difluorobenzyl)-9-hydroxy-2-methyl-8,10-dioxo-3,6,8,10-tetrahydro-2H-1,7-methanopyrido[1,2-b][1,2,5]triazecine-11-carboxamide] gave an EC50 (HIV-1 (IIIB)) of 5.3 nM, a CC50 (MT-4 cells; [2]) of 6110 nM and an EC50 (pLai RLuc reporter virus; [7]) of 544 nM. For the same molecule, the EC50 (pLai RLuc reporter virus; [8]) was 1.68 nM.

For CO[C@@H]1[C@H](OC)[C@H](C)N2CN([C@@H]1C)n1cc(C(=O)NCc3c(F)cc(F)cc3F)c(=O)c(O)c1C2=O [Example C61, (1S,2R,3S,4R,5S)-8-hydroxy-3,4-dimethoxy-2,5-dimethyl-7,9-dioxo-N-(2,4,6-trifluorobenzyl)-2,3,4,5,7,9-hexahydro-1,6-methanopyrido[1,2-b][1,2,5]triazonine-10-carboxamide], the EC50 (HIV-1 (IIIB); [1]) was 2.8 nM, the CC50 (MT-4 cells; [2]) was 50000 nM and the EC50 (pLai RLuc reporter virus; [3]) was 1.6 nM. For the same molecule, the EC50 (pLai RLuc reporter virus; [4]) was 0.76 nM.

For C[C@@H]1[C@H]2C[C@H]2[C@H](C)N2CN1n1cc(C(=O)NCc3c(F)cc(F)cc3F)c(=O)c(O)c1C2=O [Example C89, (1aS,2R,3R,11S,11aR)-8-hydroxy-2,11-dimethyl-7,9-dioxo-N-(2,4,6-trifluorobenzyl)-1a,2,7,9,11,11a-hexahydro-1H-3,10-methanocyclopropa[g]pyrido[1,2-b][1,2,5]triazonine-6-carboxamide], the EC50 (HIV-1 (IIIB)) was 1.1 nM, the CC50 (MT-4 cells; [2]) was 37200 nM and the EC50 (pLai RLuc reporter virus; [5]) was 36.5 nM. The EC50 (pLai RLuc reporter virus; [6]) was 1.09 nM.

Work on C[C@@H]1CCC[C@H](C)N2CN1n1cc(C(=O)NCc3c(F)cc(F)cc3F)c(=O)c(O)c1C2=O [Example C8, (1S,2R,6S)-9-hydroxy-2,6-dimethyl-8,10-dioxo-N-(2,4,6-trifluorobenzyl)-3,4,5,6,8,10-hexahydro-2H-1,7-methanopyrido[1,2-b][1,2,5]triazecine-11-carboxamide] yielded an EC50 (HIV-1 (IIIB); [1]) of 1.8 nM, a CC50 (MT-4 cells; [2]) of 4720 nM and an EC50 (pLai RLuc reporter virus; [7]) of 16.4 nM. It also gave an EC50 (pLai RLuc reporter virus; [8]) of 0.55 nM.
